Assay: xn = mol fraction of the nth substance listed
Conditions: 101 kPa

CCCCCCCCCCCCCC[n+]1ccccc1.O=C([O-])C(O)c1ccccc1 + CC(C)C[C@H](N)C(=O)O + O
electrical conductivity [S/m]
Conditions	303.15 K	308.15 K	313.15 K
x1 = 4.89e-06, x2 = 0.0009002	–	0.0041	0.0045
x1 = 5.65e-06, x2 = 0.001799	–	0.00436	0.0047
x1 = 6.85e-06, x2 = 0	–	0.0034	0.0037
x1 = 1.069e-05, x2 = 0.0009002	–	0.0064	0.0071
x1 = 1.13e-05, x2 = 0.001799	–	0.0065	0.0071
x1 = 1.424e-05, x2 = 0	–	0.0065	0.0071
x1 = 1.54e-05, x2 = 0.0009002	–	0.0083	0.0091
x1 = 1.695e-05, x2 = 0.001799	–	0.0086	0.0093
x1 = 2.084e-05, x2 = 0.0009002	–	0.0104	0.0114
x1 = 2.126e-05, x2 = 0	–	0.0093	0.0101
x1 = 2.205e-05, x2 = 0.001799	–	0.0106	0.0116
x1 = 2.519e-05, x2 = 0.0009002	–	0.012	0.0132
x1 = 2.733e-05, x2 = 0.001799	–	0.0125	0.0137
x1 = 2.811e-05, x2 = 0	–	0.0122	0.0131
x1 = 2.972e-05, x2 = 0.0009002	–	0.0138	0.0152
x1 = 3.28e-05, x2 = 0.001799	–	0.0144	0.0158
x1 = 3.46e-05, x2 = 0	–	0.0145	0.0157
x1 = 3.552e-05, x2 = 0.0009002	–	0.0157	0.0174
x1 = 3.863e-05, x2 = 0.001799	–	0.016	0.0177
x1 = 4.108e-05, x2 = 0	0.0146	0.0161	0.0179
x1 = 4.186e-05, x2 = 0.0009001	0.0157	0.0175	0.0194
x1 = 4.41e-05, x2 = 0.001799	0.0155	0.0172	0.0191
x1 = 4.811e-05, x2 = 0	0.0161	0.0179	0.0198
x1 = 4.838e-05, x2 = 0.0009001	0.017	0.0189	0.0211
x1 = 5.139e-05, x2 = 0.001799	0.0168	0.019	0.021
x1 = 5.388e-05, x2 = 0	0.0172	0.0191	0.0211
x1 = 5.509e-05, x2 = 0.0009001	0.018	0.0203	0.0225
x1 = 5.868e-05, x2 = 0.001799	0.018	0.0203	0.0225
x1 = 5.982e-05, x2 = 0	0.0182	0.0202	0.0224
x1 = 6.179e-05, x2 = 0.0009001	0.0192	0.0215	0.0239
x1 = 6.559e-05, x2 = 0	0.0192	0.0213	0.0236
x1 = 6.56e-05, x2 = 0.001799	0.0192	0.0216	0.0239
x1 = 6.813e-05, x2 = 0.0009001	0.0203	0.0227	0.0252
x1 = 7.081e-05, x2 = 0	0.02	0.0223	0.0246
x1 = 7.216e-05, x2 = 0.001799	0.0203	0.0227	0.0252
x1 = 7.484e-05, x2 = 0.0009001	0.0214	0.0239	0.0266
x1 = 7.604e-05, x2 = 0	0.0209	0.0232	0.0258
x1 = 7.908e-05, x2 = 0.001799	0.0214	0.0238	0.0265
x1 = 8.072e-05, x2 = 0	0.0217	0.0241	0.0266

Reference: the CheMixHub ionic liquid set
